Laboratory results from ChEMBL document CHEMBL3779795, “Design and synthesis of thiourea derivatives with sulfur-containing heterocyclic scaffolds as potential tyrosinase inhibitors” (Bioorg Med Chem, 2016).
pIC50, pKi: −log10 of the molar value.

These compounds were tested against T1, Tyrosinase (Agaricus bisporus, UniProt O42713) (assay: Inhibition of diphenolase activity of mushroom tyrosinase preincubated for 10 mins followed by addition of L-DOPA measured for 5 mins by spectrophotometry).
T1 sequence (O42713 whole entry): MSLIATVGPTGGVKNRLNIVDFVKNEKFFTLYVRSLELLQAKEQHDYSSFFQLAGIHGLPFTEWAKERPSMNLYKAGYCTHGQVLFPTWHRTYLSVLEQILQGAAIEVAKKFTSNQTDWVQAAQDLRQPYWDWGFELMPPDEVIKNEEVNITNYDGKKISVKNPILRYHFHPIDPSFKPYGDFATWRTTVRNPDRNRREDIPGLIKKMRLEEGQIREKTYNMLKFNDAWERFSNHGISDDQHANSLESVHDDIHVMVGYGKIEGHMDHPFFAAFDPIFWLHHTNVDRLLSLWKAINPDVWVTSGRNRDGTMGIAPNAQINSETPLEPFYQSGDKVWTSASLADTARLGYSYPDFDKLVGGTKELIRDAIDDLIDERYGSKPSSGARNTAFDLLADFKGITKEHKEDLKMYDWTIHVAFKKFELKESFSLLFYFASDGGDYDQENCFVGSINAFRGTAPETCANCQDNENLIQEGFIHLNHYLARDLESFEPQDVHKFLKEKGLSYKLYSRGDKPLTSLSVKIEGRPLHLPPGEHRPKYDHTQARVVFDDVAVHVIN
In the case of `O=C(O)CSc1nnc(NC(=S)Nc2ccc(Cl)cc2)s1`, the pIC50 was 4.58.
`O=C(O)CSc1nnc(NC(=S)Nc2ccccc2)s1` was tested, and the pIC50 was 4.56.
`O=C(O)CSc1nnc(NC(=S)Nc2ccc(F)c(F)c2)s1` showed a pIC50 of 4.69.
`O=C(O)CSc1nnc(NC(=S)Nc2ccc(F)cc2)s1` showed a pIC50 of 4.68.
For `O=C(O)CSc1nnc(NC(=S)Nc2ccc(F)c(Cl)c2)s1`, the pIC50 was 4.47.
Compound `O=C(O)CSc1nnc(NC(=S)Nc2ccc(F)cc2F)s1` has a pIC50 of 4.70.
`COc1ccccc1NC(=S)Nc1nnc(SCC(=O)O)s1` showed a pIC50 of 4.57.
`O=C(O)CSc1nnc(NC(=S)Nc2cccc(F)c2)s1` was tested, and the pIC50 was 4.50.
Work on `O=C(O)CSc1nnc(NC(=S)Nc2cccc(C(F)(F)F)c2)s1` yielded a pIC50 of 5.21.
Work on `O=C(O)CSc1nnc(NC(=S)Nc2cccc(Cl)c2)s1` yielded a pIC50 of 4.22.
`Cc1ccc(NC(=S)Nc2nnc(SCC(=O)O)s2)cc1` gave a pIC50 of 4.26.

What follows are compounds tested against T1, Tyrosinase (assay: Noncompetitive inhibition of diphenolase activity of mushroom tyrosinase preincubated for 10 mins followed by addition of L-DOPA measured for 5 mins by Lineweaver-Burk plot analysis).
Work on `O=C(O)CSc1nnc(NC(=S)Nc2cccc(C(F)(F)F)c2)s1` yielded a pKi of 5.09.
